Results reported in PMC3265452 (PLoS Neglected Tropical Diseases, 2012).
Where a name gives a salt, the structure may show the parent alone.

The compounds below were run against AaDOP2 (Aedes aegypti, UniProt H6D5H2) (assay: AaDOP2 antagonist screen of the LOPAC1280 library (HEK-CRELuc-Aadop2 cells, luminescence)). Conditions: not given.
Format: cell-based

Chain of AaDOP2 (H6D5H2 1-476): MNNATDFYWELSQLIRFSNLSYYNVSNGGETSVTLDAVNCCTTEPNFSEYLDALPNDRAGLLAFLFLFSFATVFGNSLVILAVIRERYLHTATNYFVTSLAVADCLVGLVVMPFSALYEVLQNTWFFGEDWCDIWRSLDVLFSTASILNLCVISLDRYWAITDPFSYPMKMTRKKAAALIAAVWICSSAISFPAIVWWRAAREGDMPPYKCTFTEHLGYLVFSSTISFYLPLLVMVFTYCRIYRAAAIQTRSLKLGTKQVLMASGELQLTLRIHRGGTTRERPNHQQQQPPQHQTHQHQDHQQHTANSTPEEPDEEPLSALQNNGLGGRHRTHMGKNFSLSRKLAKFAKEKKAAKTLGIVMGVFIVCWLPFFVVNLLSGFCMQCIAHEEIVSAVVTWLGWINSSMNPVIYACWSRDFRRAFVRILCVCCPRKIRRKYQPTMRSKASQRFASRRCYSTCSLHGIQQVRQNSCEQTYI

SMILES	Compound effect (percent receptor signaling in presence of test compound, relative lux units relative to the SCH23390 control)
CCCN(CCC)CCc1ccc(O)c(O)c1 [Compound 439, Dipropyldopamine hydrobromide]	106
Br.C=CCN1CCc2cccc3c2[C@H]1Cc1ccc(O)c(O)c1-3 [Compound 441, R(-)-N-Allylnorapomorphine hydrobromide]	87
CCn1cc(C(=O)O)c(=O)c2ccc(Cc3ccccc3)nc21 [Compound 442, Amfonelic acid]	96
O=C1NC(c2cccc([N+](=O)[O-])c2)=CCN1c1ccccc1O [Compound 443, Icilin]	87
CCCn1c(=O)c2c(ncn2C)n(CCC)c1=O [Compound 450, 1,3-Dipropyl-7-methylxanthine]	123
CC(C)c1cccc(C(C)C)c1O [Compound 452, Propofol]	94
CN1CC[C@@]23CCCC[C@@H]2[C@@H]1Cc1ccc(O)cc13.O=C(O)C(O)C(O)C(=O)O [Compound 453, Dextrorphan D-tartrate]	107
COc1cc(OC)cc(C(CNc2ncnc3c2ncn3[C@@H]2O[C@H](CO)[C@@H](O)[C@H]2O)c2ccccc2C)c1 (stereo partly drawn) [Compound 455, DPMA]	110
O=[N+]([O-])c1cc(O)c(O)c([N+](=O)[O-])c1 [Compound 456, 3,5-Dinitrocatechol]	95
CCCN(CCC)CCc1c[nH]c2ccc(C(N)=O)cc12.O=C(O)/C=C\C(=O)O [Compound 457, N,N-Dipropyl-5-carboxamidotryptamine maleate]	106
O=C1N=c2cc(Cl)c(Cl)cc2=NC1=O [Compound 458, 6,7-Dichloroquinoxaline-2,3-dione]	129
C#CCn1c(=O)c2c(ncn2C)n(C)c1=O [Compound 459, 3,7-Dimethyl-I-propargylxanthine]	101
Cl.O=C(OC1CCN(CCCl)CC1)C(c1ccccc1)c1ccccc1 [Compound 461, 4-Diphenylacetoxy-N-(2-chloroethyl)piperidine hydrochloride]	99
NCCCCCCCCCCN [Compound 462, 1,10-Diaminodecane]	99
Br.CO[C@H]1CC=C2CCN3CCC4=C(CC(=O)OC4)[C@]23C1 [Compound 463, Dihydro-beta-erythroidine hydrobromide]	103
COc1cc(C[C@@H](C)N)c(OC)cc1I.Cl [Compound 464, ( R)-(-)-DOI hydrochloride]	69
CC(C)[C@@]1(NC(=O)[C@@H]2C[C@@H]3c4cccc5[nH]cc(c45)C[C@H]3N(C)C2)O[C@@]2(O)[C@@H]3CCCN3C(=O)[C@H](Cc3ccccc3)N2C1=O.CS(=O)(=O)O [Compound 465, Dihydroergocristine methanesulfonate]	32
Nc1cc(=O)[nH]c(N)n1 [Compound 466, 2,6-Diamino-4-pyrimidinone]	114
CN1C2CCC1CC(OC(c1ccc(F)cc1)c1ccc(F)cc1)C2.Cl (stereo not drawn) [Compound 468, 4',4''-Difluor-3alpha-(diphenylmethoxy)tropane hydrochloride]	123
CC(C)C[C@H](NC(=O)[C@H](O)[C@H](N)Cc1ccccc1)C(=O)O [Compound 471, Epibestatin hydrochloride]	107
CCc1cccc2c3c([nH]c12)C(CC)(CC(=O)O)OCC3 (stereo not drawn) [Compound 472, Etodolac]	98

SMILES	Compound effect (percent receptor signaling in presence of test compound, relative lux units relative to the SCH23390 control)
CSc1ccc(C(=O)c2[nH]c(=O)[nH]c2C)cc1 [Compound 473, Enoximone]	103
COc1cc([C@@H]2c3cc4c(cc3[C@@H](O[C@@H]3O[C@@H]5CO[C@@H](C)O[C@H]5[C@H](O)[C@H]3O)[C@H]3COC(=O)[C@H]23)OCO4)cc(OC)c1O [Compound 474, Etoposide]	90
CCOC(=O)c1cnc2c(cnn2CC)c1NN=C(C)C [Compound 476, Etazolate hydrochloride]	136
CC[C@H]1CN2CCc3cc(OC)c(OC)cc3[C@@H]2C[C@@H]1C[C@H]1NCCc2cc(OC)c(OC)cc21 [Compound 478, Emetine dihydrochloride hydrate]	14
CC(C)C[C@H](NC(=O)[C@H]1O[C@@H]1C(=O)O)C(=O)NCCCCN=C(N)N [Compound 480, E-64]	112
CN[C@@H](C)[C@H](O)c1ccccc1.CN[C@@H](C)[C@H](O)c1ccccc1.O=S(=O)(O)O [Compound 483, (-)-Ephedrine hemisulfate]	60
CC[N+](C)(C)c1cccc(O)c1 [Compound 484, Edrophonium chloride]	118
CCC1(C2=NCCN2)Cc2ccccc2O1 (stereo not drawn) [Compound 485, Efaroxan hydrochloride]	74
Cc1c2ccncc2c(C)c2c1[nH]c1ccccc12 [Compound 486, Ellipticine]	98
O=c1c2ccccc2[se]n1-c1ccccc1 [Compound 487, Ebselen]	102
CCN1C(=O)C=CC1=O [Compound 490, N-Ethylmaleimide]	87
O=C(O)CN(CCOCCOCCN(CC(=O)O)CC(=O)O)CC(=O)O [Compound 492, Ethylene glycol-bis(2-aminoethylether)-N,N,N',N'-tetraacetic acid]	121
CCC1(C)CC(=O)NC1=O (stereo not drawn) [Compound 494, Ethosuximide]	146
O=C(O)[C@@H]1[C@H](C(=O)O)[C@H]2CC[C@@H]1O2 [Compound 495, Endothall]	117
Cc1cc(O)c2c(c1)C(=O)c1cc(O)cc(O)c1C2=O [Compound 496, Emodin]	49
CNC(=O)Oc1ccc2c(c1)[C@]1(C)CCN(C)[C@@H]1N2C [Compound 497, (-)-Physostigmine]	93
CCCN(CC1CC1)c1nc(C)nc(Nc2c(Cl)cc(Cl)cc2Cl)c1Cl [Compound 498, NBI 27914]	90
C[C@]12CC[C@@H]3c4ccc(O)cc4CC[C@H]3[C@@H]1CC[C@@H]2O [Compound 499, beta-Estradiol]	112
C[C@]12CC[C@@H]3c4ccc(O)cc4CC[C@H]3[C@@H]1CCC2=O [Compound 500, Estrone]	91
COC(=O)c1cc2c(cn1)[nH]c1ccccc12 [Compound 501, Methyl beta-carboline-3-carboxylate]	118

Same assay, conditions: 10 µM compound, 300 nM dopamine, 2 hr; hit = compound effect <20

SMILES	Compound effect (percent receptor signaling in presence of test compound, relative lux units relative to the SCH23390 control)
Cl.Cl.Fc1ccc(C(OCCN2CCN(CCCc3ccccc3)CC2)c2ccc(F)cc2)cc1 [Compound 445, GBR-12909 dihydrochloride]	59%
C[N+]1(C)CCC(OC(=O)C(c2ccccc2)c2ccccc2)CC1.[I-] [Compound 449, 4-DAMP methiodide]	97%
CCCCC1(C2CCCC2)Cc2cc(OCC(=O)O)c(Cl)c(Cl)c2C1=O (stereo not drawn) [Compound 454, R(+)-Butylindazone]	97%
O=C(O)c1cc(=O)c2c(Cl)cc(Cl)cc2[nH]1 [Compound 460, 5,7-Dichlorokynurenic acid]	102%
CCCN1CCC[C@@H](c2cccc(C#N)c2)C1.Cl [Compound 469, S(-)-DS 121 hydrochloride]	94%
CCN(CC)C(=O)c1ccc(O)c(OC)c1 [Compound 470, Vanillic acid diethylamide]	101%
CCCCCCCCCCCCCCCCCCOCC(COP(=O)([O-])OCC[N+](C)(C)C)OC (stereo not drawn) [Compound 475, ET-18-OCH3]	113%
Nc1ncnc2c1c(-c1ccc(Oc3ccccc3)cc1)cn2C1CCCC1 [Compound 477, 7-Cyclopentyl-5-(4-phenoxy)phenyl-7H-pyrrolo[2,3-d]pyrimidin-4-ylamine]	76%
Br.CCSC(=N)N [Compound 482, S-Ethylisothiourea hydrobromide]	104%

Same assay, conditions: read-out: % of the SCH23390 effect (percent inhibition of receptor response relative to the SCH23390 control)

SMILES	inhibition at 10 µM
CC[C@H]1CN2CCc3cc(OC)c(OC)cc3[C@@H]2C[C@@H]1C[C@H]1NCCc2cc(OC)c(OC)cc21 [Compound 478, Emetine dihydrochloride hydrate]	86%
